From PMC5908784, “Extracellular loops 2 and 3 of the calcitonin receptor selectively modify agonist binding and efficacy” (Biochemical Pharmacology, 2018) come the findings set out here.

Holding throughout (assay): cAMP accumulation
What all share (type): cell-based
Details in all cases: mean ± S.E.M.; for Emax: cAMP maximal response, SEM; for EC50: cAMP, CV1-FlpIn cells, 30 min, IBMX

For one assay, the target named is T1, hCTR E294A (Homo sapiens, UniProt P30988, E294A).
T1 construct: c-Myc (N); expressed in transfected cells
T1 sequence (P30988 25-474 E294A): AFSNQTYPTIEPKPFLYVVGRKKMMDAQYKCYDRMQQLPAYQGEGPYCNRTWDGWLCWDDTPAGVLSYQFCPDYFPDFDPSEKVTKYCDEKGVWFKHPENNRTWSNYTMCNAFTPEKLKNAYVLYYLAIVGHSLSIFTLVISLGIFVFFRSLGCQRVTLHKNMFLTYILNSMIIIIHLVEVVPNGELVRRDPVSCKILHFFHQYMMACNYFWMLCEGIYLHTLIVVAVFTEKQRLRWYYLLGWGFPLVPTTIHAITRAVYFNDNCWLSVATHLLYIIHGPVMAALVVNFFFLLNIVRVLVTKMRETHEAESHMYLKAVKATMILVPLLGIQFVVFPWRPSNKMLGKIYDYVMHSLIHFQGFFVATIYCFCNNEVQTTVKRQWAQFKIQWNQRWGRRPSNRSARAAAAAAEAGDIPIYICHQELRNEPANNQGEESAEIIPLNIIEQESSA
In outline:
(§1)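 30 min ligand stimulation with IBMX present; cells seeded overnight beforehand. Ethanol extract, dried at RT.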

Another assay addresses T2, hCTR L298A (Homo sapiens, UniProt P30988, L298A).
T2 construct: c-Myc (N); expressed in transfected cells
T2 sequence (P30988 25-474 L298A): T1 sequence (P30988 25-474 E294A) with A270E, L274A
An outline of the steps:
as §1

A further assay deals with T3, hCTR M376A (Homo sapiens, UniProt P30988, M376A).
T3 construct: c-Myc (N); expressed in transfected cells
T3 sequence (P30988 25-474 M376A): T1 sequence (P30988 25-474 E294A) with A270E, M352A
In outline:
as §1

A further assay addresses T4, hCTR T280A (Homo sapiens, UniProt P30988, T280A).
T4 construct: expressed in transfected cells
T4 sequence (P30988 25-474 T280A): T1 sequence (P30988 25-474 E294A) with T256A, A270E
In outline:
as §1

The next assay has as its target T5, hCTR W361A (Homo sapiens, UniProt P30988, W361A).
T5 construct: expressed in transfected cells
T5 sequence (P30988 25-474 W361A): T1 sequence (P30988 25-474 E294A) with A270E, W337A
In outline:
as §1

Structures are written as SMILES. Substitutions are numbered along the chain they refer to. Where a SMILES comes first, the peptide text is derived from it. Bridges are numbered along the chain shown (N, C = ends).

What is called Emax is the size of the effect at its maximum, as opposed to the concentration needed. With `CC[C@H](C)[C@H](NC(=O)[C@H](C)NC(=O)[C@@H](NC(=O)[C@H](CCC(N)=O)NC(=O)[C@@H]1CCCN1C(=O)[C@H](Cc1ccccc1)NC(=O)[C@@H](NC(=O)[C@H](Cc1c[nH]cn1)NC(=O)[C@H](Cc1ccccc1)NC(=O)[C@H](CCCCN)NC(=O)[C@H](CC(N)=O)NC(=O)[C@H](Cc1ccccc1)NC(=O)[C@H](CC(=O)O)NC(=O)[C@H](CCC(N)=O)NC(=O)[C@@H](NC(=O)[C@H](Cc1ccc(O)cc1)NC(=O)[C@@H](NC(=O)CNC(=O)[C@H](CC(C)C)NC(=O)[C@H](CCSC)NC(=O)[C@@H]1CSSC[C@H](N)C(=O)NCC(=O)N[C@@H](CC(N)=O)C(=O)N[C@@H](CC(C)C)C(=O)N[C@@H](CO)C(=O)N[C@@H]([C@@H](C)O)C(=O)N1)[C@@H](C)O)[C@@H](C)O)[C@@H](C)O)[C@@H](C)O)C(=O)NCC(=O)N[C@H](C(=O)NCC(=O)N[C@@H](C)C(=O)N1CCC[C@H]1C(N)=O)C(C)C` [hCT], the Emax at hCTR E294A came to 105 ± 5%; at hCTR L298A it was 103 ± 6%; on hCTR M376A, 84.3 ± 10%; at hCTR T280A, 97 ± 6%; at hCTR W361A, 132 ± 9%.

As a reminder, the EC50 is the concentration that produces a half-maximal response. Read a low EC50 as a more potent agent. For `CC(C)C[C@H](NC(=O)CNC(=O)[C@H](C)NC(=O)[C@H](CC(C)C)NC(=O)[C@H](CCCNC(=N)N)NC(=O)[C@H](Cc1cnc[nH]1)NC(=O)[C@@H](NC(=O)[C@@H](NC(=O)[C@@H]1CSSC[C@H](NC(=O)[C@H](C)N)C(=O)N[C@@H](CC(=O)O)C(=O)N[C@@H]([C@@H](C)O)C(=O)N[C@@H](C)C(=O)N[C@@H]([C@@H](C)O)C(=O)N1)C(C)C)[C@@H](C)O)C(=O)N[C@@H](CC(C)C)C(=O)N[C@@H](CO)C(=O)N[C@@H](CCCNC(=N)N)C(=O)N[C@@H](CO)C(=O)NCC(=O)NCC(=O)N[C@H](C(=O)N[C@H](C(=O)N[C@@H](CCCCN)C(=O)N[C@@H](CC(N)=O)C(=O)N[C@@H](CC(N)=O)C(=O)N[C@@H](Cc1ccccc1)C(=O)N[C@H](C(=O)N1CCC[C@H]1C(=O)N[C@H](C(=O)N[C@@H](CC(N)=O)C(=O)N[C@H](C(=O)NCC(=O)N[C@@H](CO)C(=O)N[C@@H](CCCCN)C(=O)N[C@@H](C)C(=O)N[C@@H](Cc1ccccc1)C(N)=O)C(C)C)[C@@H](C)O)C(C)C)C(C)C)C(C)C` [hαCGRP], the maximal response (Emax) at hCTR E294A came out at 137 ± 31%; on hCTR L298A, 109 ± 17%; at hCTR M376A, 47 ± 7%; at hCTR T280A, 107 ± 21%; on hCTR W361A, 102 ± 16%. Moreover, the EC50 at hCTR E294A is 49 nM; on hCTR L298A, 33.9 nM; at hCTR M376A it was 141 nM; at hCTR T280A it was 3.31 nM; at hCTR W361A, 97.7 nM.

On to `CSCC[C@H](NC(=O)CNC(=O)[C@H](CO)NC(=O)[C@H](Cc1ccccc1)NC(=O)[C@H](CCCNC(=N)N)NC(=O)[C@H](Cc1c[nH]cn1)NC(=O)[C@H](Cc1ccccc1)NC(=O)[C@H](CC(N)=O)NC(=O)[C@H](CC(N)=O)NC(=O)[C@H](CC(C)C)NC(=O)[C@H](CC(N)=O)NC(=O)[C@H](CCCNC(=N)N)NC(=O)[C@H](Cc1c[nH]c2ccccc12)NC(=O)[C@H](Cc1ccc(O)cc1)NC(=O)[C@H](C)NC(=O)[C@H](CO)NC(=O)[C@H](CC(C)C)NC(=O)[C@@H](NC(=O)[C@@H]1CSSC[C@H](N)C(=O)N[C@@H](CO)C(=O)N[C@@H](CC(N)=O)C(=O)N[C@@H](CC(C)C)C(=O)N[C@@H](CO)C(=O)N[C@@H]([C@@H](C)O)C(=O)N1)C(C)C)C(=O)NCC(=O)N[C@@H](Cc1ccccc1)C(=O)NCC(=O)N1CCC[C@H]1C(=O)N[C@@H](CCC(=O)O)C(=O)N[C@H](C(=O)N1CCC[C@H]1C(N)=O)[C@@H](C)O` [pCT] (H-CSNLSTCVLSAYWRNLNNFHRFSGMGFGPETP-NH2; disulfide 1-7), for which the Emax worked out at 105 ± 6% on hCTR E294A; 118 ± 7% at hCTR L298A; 87 ± 11% on hCTR M376A; 113 ± 5% on hCTR T280A; 133 ± 9% on hCTR W361A. Further, the EC50 on hCTR E294A is 0.0398 nM; on hCTR L298A, 0.0631 nM; on hCTR M376A, 0.234 nM; on hCTR T280A it was 0.0398 nM; at hCTR W361A, 0.148 nM.

`CC(C)C[C@H](NC(=O)[C@H](CC(N)=O)NC(=O)[C@H](CC(N)=O)NC(=O)[C@H](CO)NC(=O)[C@H](CO)NC(=O)[C@H](CCCNC(=N)N)NC(=O)[C@@H](NC(=O)[C@H](CC(C)C)NC(=O)[C@H](Cc1ccccc1)NC(=O)[C@H](CC(N)=O)NC(=O)[C@H](C)NC(=O)[C@H](CC(C)C)NC(=O)[C@H](CCCNC(=N)N)NC(=O)[C@H](CCC(N)=O)NC(=O)[C@@H](NC(=O)[C@H](C)NC(=O)[C@@H]1CSSC[C@H](NC(=O)[C@@H](N)CCCCN)C(=O)N[C@@H](CC(N)=O)C(=O)N[C@@H]([C@@H](C)O)C(=O)N[C@@H](C)C(=O)N[C@@H]([C@@H](C)O)C(=O)N1)[C@@H](C)O)C(C)C)C(=O)NCC(=O)N1CCC[C@H]1C(=O)N[C@H](C(=O)N[C@@H](CC(C)C)C(=O)N1CCC[C@H]1C(=O)N1CCC[C@H]1C(=O)N[C@H](C(=O)N[C@@H](CC(N)=O)C(=O)N[C@H](C(=O)NCC(=O)N[C@@H](CO)C(=O)N[C@@H](CC(N)=O)C(=O)N[C@H](C(=O)N[C@@H](Cc1ccc(O)cc1)C(N)=O)[C@@H](C)O)C(C)C)[C@@H](C)O)C(C)C` [rAmy]: the Emax on hCTR E294A was 90 ± 9%; at hCTR L298A, 117 ± 13%; at hCTR M376A it was 85 ± 13%; on hCTR T280A it was 69 ± 8%; on hCTR W361A, 102 ± 13%.
